{"source": "patent US20230203095A1", "about": "“BIOLOGICAL PEPTIDE FOR TREATING LUNG DISEASES AND APPLICATION THEREOF” (SHANGHAI INSTITUTE OF PHARMACEUTICAL INDUSTRY CO., LTD., priority 2019, published 2023)", "system": "OVA-induced asthma model mice", "assay": "Lung function (inspiratory airway resistance, lung compliance) in OVA-induced allergic asthma model mice", "type": "in vivo, BALB/c mice", "settings": "for Inspiratory airway resistance / Lung compliance: n=10", "protocol": "The second batch: mice were divided into groups, 10 mice in each group, namely: blank control group (normal saline), model group (OVA, dose of 20 ug/mouse), SP peptide group (administered dose of 87.5 µg/kg body weight/ day, 175 µg/kg body weight/day, 350 µg/kg body weight/day, respectively), SIPI-D00 peptide group (administered dose of 87.5 µg/kg body weight/day, 175 µg/kg body weight/day, 350 µg/kg body weight/day), and Dexamethasone group (administered dose of 2 mg/kg body weight/day).\nMice in the model group, SP peptide group, SIPI-D00 peptide group and dexamethasone group were sensitized by intraperitoneal injection of OVA (20 µg OVA/mice) on day 0, 7, and 14, and challenged by aerosol administration of OVA (once a day for 5 consecutive days) on day 21-25 to construct asthmatic model animals. Mice in the model group were given normal saline on days 21-28; mice in different doses of SP peptide group and SIPI-D00 peptide group were injected subcutaneously with different doses of SP and SIPI-D00 on days 19-28; mice in dexamethasone group were injected intraperitoneally with 2 mg/kg/day dexamethasone on days 21-28. At the same time, 10 mice in the blank control group were fed normally from day 0 to day 28 without any treatment, and were given normal saline as a blank control.\nOn the 28th day, the mice were anesthetized with tracheal intubation and jugular vein intubation, and the inspiratory airway resistance and lung compliance were measured in each group of animals. Each animal was given fold increasing amounts of methacholine via the jugular vein: 0.025 mg/kg, 0.05 mg/kg, 0.1 mg/kg, 0.2 mg/kg. After each dose was given, the lung compliance curve was recorded continuously for 5 minutes, and the inspiratory airway resistance and lung compliance were calculated. […]\nAt the same time, 10 mice in the blank control group were fed normally from day 0 to day 28 without any treatment, and were given normal saline as a blank control.", "key": {"[1]": {"settings": "87.5 ug/kg/day s.c., methacholine 0 mg/kg"}, "[2]": {"settings": "87.5 ug/kg/day s.c., methacholine 0.025 mg/kg"}, "[3]": {"settings": "87.5 ug/kg/day s.c., methacholine 0.05 mg/kg"}, "[4]": {"settings": "87.5 ug/kg/day s.c., methacholine 0.1 mg/kg"}, "[5]": {"settings": "87.5 ug/kg/day s.c., methacholine 0.2 mg/kg"}, "[6]": {"settings": "175 ug/kg/day s.c., methacholine 0 mg/kg"}, "[7]": {"settings": "175 ug/kg/day s.c., methacholine 0.025 mg/kg"}, "[8]": {"settings": "175 ug/kg/day s.c., methacholine 0.05 mg/kg"}, "[9]": {"settings": "175 ug/kg/day s.c., methacholine 0.1 mg/kg"}, "[10]": {"settings": "175 ug/kg/day s.c., methacholine 0.2 mg/kg"}, "[11]": {"settings": "350 ug/kg/day s.c., methacholine 0 mg/kg"}, "[12]": {"settings": "350 ug/kg/day s.c., methacholine 0.025 mg/kg"}, "[13]": {"settings": "350 ug/kg/day s.c., methacholine 0.05 mg/kg"}, "[14]": {"settings": "350 ug/kg/day s.c., methacholine 0.1 mg/kg"}, "[15]": {"settings": "350 ug/kg/day s.c., methacholine 0.2 mg/kg"}}, "note": "Square brackets hold non-standard residues; d marks the D form. Peptide text beside a SMILES is read from it."}
{"compound": "C[C@H](O)[C@@H](NC(=O)[C@@H](Cc1ccc(O)cc1)NC(=O)[C@H](NC(=O)[C@@H](CO)NC(=O)CN)[C@H](C)O)C(=O)N[C@H](CCC(N)=O)C(=O)NCC(=O)O", "note": "[SIPI-D00, GSTYTQG] (H-G[dS][dT][dY][dT][dQ]G-OH)", "values": [{"measurement": "Inspiratory airway resistance", "setting": "[1]", "result": "1.00±0.00"}, {"measurement": "Lung compliance", "setting": "[1]", "result": "1.00±0.00"}, {"measurement": "Inspiratory airway resistance", "setting": "[2]", "result": "1.32±0.32"}, {"measurement": "Lung compliance", "setting": "[2]", "result": "0.80±0.18"}, {"measurement": "Inspiratory airway resistance", "setting": "[3]", "result": "1.64±0.35"}, {"measurement": "Lung compliance", "setting": "[3]", "result": "0.64±0.14"}, {"measurement": "Inspiratory airway resistance", "setting": "[4]", "result": "1.86±0.43"}, {"measurement": "Lung compliance", "setting": "[4]", "result": "0.57±0.13"}, {"measurement": "Inspiratory airway resistance", "setting": "[5]", "result": "2.05±0.51"}, {"measurement": "Lung compliance", "setting": "[5]", "result": "0.52±0.13"}, {"measurement": "Inspiratory airway resistance", "setting": "[6]", "result": "1.00±0.00"}, {"measurement": "Lung compliance", "setting": "[6]", "result": "1.00±0.00"}, {"measurement": "Inspiratory airway resistance", "setting": "[7]", "result": "1.21±0.15"}, {"measurement": "Lung compliance", "setting": "[7]", "result": "0.84±0.10"}, {"measurement": "Inspiratory airway resistance", "setting": "[8]", "result": "1.35±0.18"}, {"measurement": "Lung compliance", "setting": "[8]", "result": "0.75±0.10"}, {"measurement": "Inspiratory airway resistance", "setting": "[9]", "result": "1.47±0.21"}, {"measurement": "Lung compliance", "setting": "[9]", "result": "0.69±0.093"}, {"measurement": "Inspiratory airway resistance", "setting": "[10]", "result": "1.58±0.34"}, {"measurement": "Lung compliance", "setting": "[10]", "result": "0.65±0.12"}, {"measurement": "Inspiratory airway resistance", "setting": "[11]", "result": "1.00±0.00"}, {"measurement": "Lung compliance", "setting": "[11]", "result": "1.00±0.00"}, {"measurement": "Inspiratory airway resistance", "setting": "[12]", "result": "1.28±0.30"}, {"measurement": "Lung compliance", "setting": "[12]", "result": "0.83±0.14"}, {"measurement": "Inspiratory airway resistance", "setting": "[13]", "result": "1.43±0.35"}, {"measurement": "Lung compliance", "setting": "[13]", "result": "0.70±0.19"}, {"measurement": "Inspiratory airway resistance", "setting": "[14]", "result": "1.61±0.47"}, {"measurement": "Lung compliance", "setting": "[14]", "result": "0.55±0.18"}, {"measurement": "Inspiratory airway resistance", "setting": "[15]", "result": "1.74±0.51"}, {"measurement": "Lung compliance", "setting": "[15]", "result": "0.49±0.19"}, {"measurement": "inspiratory phase resistance (in words)", "setting": "compared with the model group", "result": "significantly decreased"}, {"measurement": "lung compliance (in words)", "setting": "compared with the model group", "result": "significantly increased"}]}
